In ChEMBL document CHEMBL1152860, “Synthesis and antiproliferative activity of 3-amino-N-phenyl-1H-indazole-1-carboxamides” (2009):
Active and inactive are the calls of the source. The rule behind the calls is not given here.

Experiments:
CCRF-CEM = experiment: Growth inhibition of human CCRF-CEM cells after 48 hrs by SRB assay; type: functional
HL-60(TB) = experiment: Growth inhibition of human HL-60(TB) cells after 48 hrs by SRB assay; type: functional; conditions: HL-60, 48 h; for CC50: read-out: LC50 (the source's name)
EKVX = experiment: Growth inhibition of human EKVX cells after 48 hrs by SRB assay; type: functional
HCT-116 = experiment: Growth inhibition of human HCT116 cells after 48 hrs by SRB assay; type: functional; conditions: HCT-116, 48 h
OVCAR-3 = experiment: Growth inhibition of human OVCAR-3 cells after 48 hrs by SRB assay; type: functional; conditions: OVCAR-3, 48 h
OVCAR-4 = experiment: Growth inhibition of human OVCAR4 cells after 48 hrs by SRB assay; type: functional; conditions: OVCAR-4, 48 h
SK-OV-3 = experiment: Growth inhibition of human SKOV3 cells after 48 hrs by SRB assay; type: functional; conditions: SK-OV-3, 48 h
TK-10 = experiment: Growth inhibition of human TK10 cells after 48 hrs by SRB assay; type: functional; conditions: TK-10, 48 h
UO-31 = experiment: Growth inhibition of human UO31 cells after 48 hrs by SRB assay; type: functional; conditions: UO-31, 48 h
[1] = Growth inhibition of human Hs 578T cells after 48 hrs by SRB assay; type: functional
BT-549 = experiment: Growth inhibition of human BT549 cells after 48 hrs by SRB assay; type: functional; conditions: BT-549, 48 h
K562 [2] = experiment: Cell cycle arrest in human K562 cells assessed as accumulation at G0/G1 phase at 15.9 uM after 24 hrs using propidium iodide staining by flow cytometry; type: functional, cell-based
K562 [3] = experiment: Cell cycle arrest in human K562 cells assessed as decrease in accumulation at S phase at 15.9 uM after 24 hrs using propidium iodide staining by flow cytometry; type: functional, cell-based
K562 [4] = experiment: Cell cycle arrest in human K562 cells assessed as decrease in accumulation at G2/M phase at 15.9 uM after 24 hrs using propidium iodide staining by flow cytometry; type: functional, cell-based
K562 [5] = experiment: Decrease in total phosphorylated retinoblastoma protein level in human K562 cells at 34 uM after 24 hrs by flow cytometry; type: functional, cell-based
SW-620 = experiment: Growth inhibition of human SW620 cells after 48 hrs by SRB assay; type: functional; conditions: SW-620, 48 h
SF-268 = experiment: Growth inhibition of human SF268 cells after 48 hrs by SRB assay; type: functional; conditions: SF-268, 48 h
SNB-75 = experiment: Growth inhibition of human SNB75 cells after 48 hrs by SRB assay; type: functional; conditions: SNB-75, 48 h
SK-MEL-2 = experiment: Growth inhibition of human SK-MEL-2 cells after 48 hrs by SRB assay; type: functional; conditions: SK-MEL-2, 48 h
K562 [6] = experiment: Cell cycle arrest in human K562 cells assessed as accumulation at G0/G1 phase at 1.2 uM after 24 hrs using propidium iodide staining by flow cytometry; type: functional, cell-based
K562 [7] = experiment: Cell cycle arrest in human K562 cells assessed as decrease in accumulation at S phase at 1.2 uM after 24 hrs using propidium iodide staining by flow cytometry; type: functional, cell-based
K562 [8] = experiment: Cell cycle arrest in human K562 cells assessed as decrease in accumulation at G2/M phase at 1.2 uM after 24 hrs using propidium iodide staining by flow cytometry; type: functional, cell-based
K562 [9] = experiment: Decrease in total phosphorylated retinoblastoma protein level in human K562 cells at 14 uM after 24 hrs by flow cytometry; type: functional, cell-based

Row | SMILES | GI50 (HL-60(TB)) [µM] | TGI (HL-60(TB)) [µM] | CC50 (HL-60(TB)) [µM] | GI50 (EKVX) [µM] | GI50 (HCT-116) [µM] | GI50 (OVCAR-3) [µM] | GI50 (OVCAR-4) [µM] | GI50 (SK-OV-3) [µM] | GI50 (TK-10) [µM] | GI50 (UO-31) [µM] | GI50 [1] [µM] | GI50 (BT-549) [µM] | GI50 (SW-620) [µM] | GI50 (SF-268) [µM] | GI50 (SNB-75) [µM] | further results
1 | CCCCOc1ccc(NC(=O)n2nc(N)c3ccccc32)cc1 | 2.23 | 30.4 | > 100 | 13.3 | 19.9 | 18.8 | 30.7 | 44 | 24.2 | 17.5 | 20.2 | 14 | 18.3 | 25.8 | 28.6 | GI50 (CCRF-CEM): 0.213 µM; LC50 (CCRF-CEM): > 100 µM; TGI (CCRF-CEM): 17.5 µM; Activity (K562 [2]): Active; Activity (K562 [3]): Active; Activity (K562 [4]): Active; Activity (K562 [5]): Active
2 | Nc1nn(C(=O)Nc2ccc(Cc3ccccc3)cc2)c2ccccc12 | 0.466 | 15.2 | 54.9 | 11.2 | 7.03 | 6.23 | 10.7 | 36.9 | 27.2 | 0.347 | 17.2 | 13.5 | 3.62 | 4.66 | 17 | GI50 (SK-MEL-2): 36.4 µM; TGI (UO-31): > 100 µM; CC50 (UO-31; read-out: LC50 (the source's name)): > 100 µM; Activity (K562 [6]): Active; Activity (K562 [7]): Active; Activity (K562 [8]): Active; Activity (K562 [9]): Active
